Drawing on PMC11751439, “Targeting SRSF1 improves cancer immunotherapy by dually acting on CD8^+T and tumor cells” (Signal Transduction and Targeted Therapy, 2025), this text covers Kd for 1 molecule.

In assay [1] the target is T1, SRSF1 (recombinant SRSF1; serine arginine-rich splicing factor 1) (Homo sapiens, UniProt Q07955).
T1 construct: recombinant purified SRSF1; RRM1 domain targeted in screening
Nature of the assay: SPR (Biacore T100). Format: binding. On the technique in general: In SPR one partner is held on a chip, and binding of the other changes the refractive index at the surface.

Assay [2] has as its target T1, SRSF1 (recombinant SRSF1; serine arginine-rich splicing factor 1). Nature of the assay: SPR. Format: binding. The note with it: purified SRSF1 variant; unit inferred, M taken from the wild-type value.

T1 sequence (Q07955 2-248): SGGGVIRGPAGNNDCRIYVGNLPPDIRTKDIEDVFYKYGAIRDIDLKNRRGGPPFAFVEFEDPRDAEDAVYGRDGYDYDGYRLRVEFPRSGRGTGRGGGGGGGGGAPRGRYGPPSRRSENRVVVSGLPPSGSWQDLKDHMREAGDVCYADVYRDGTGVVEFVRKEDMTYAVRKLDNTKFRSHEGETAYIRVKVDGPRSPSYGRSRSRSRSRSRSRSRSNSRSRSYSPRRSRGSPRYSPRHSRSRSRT

As usually defined, the Kd is a measure of binding affinity in units of concentration. Consider `O=C(/C=C/c1ccc(O)c(O)c1)c1ccc(O)c(O)c1O` [TN2008], for which the Kd in assay [1] is 5.13 µM; in assay [2], 37.2 µM.
